42 molecules from the supplement of paper PMC5412046 can be followed below.

The structures appear in SMILES notation. Where a name gives a salt, the structure may show the parent alone.

Assay [1] concerns SB.mhdgc-1. Kind of assay: AC50 for growth inhibition (viability) (log10 M); higher = less potent. The conditions noted are these: SB.mhdgc-1 (hereditary c.1380delA CDH1 gastric cancer). An outline of the steps:
(§1)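 Gastric cancer cells from hereditary or sporadic patients, 500 per 1536 well, were exposed to compound for 48 h over 11 threefold dilutions from a final 46 μM. CellTiter-Glo luminescence, read on a ViewLux, measured viability, which was normalised to DMSO. The log half-maximal activity concentration came from four-parameter fits, and only high-quality curve classes were kept.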

Assay [2] concerns SB.msgc-1. Described as above. The conditions noted are these: SB.msgc-1 (sporadic gastric cancer). An outline of the steps:
as §1

With `CC(C)C[C@H](NC(=O)c1cc2ccccc2s1)C(=O)N1CCN(C(=O)[C@H](CO)N[S+](=O)([O-])c2ccc(Cl)cc2Cl)CC1`, the “AC50 for growth inhibition (log10 M)” value in assay [1] and in assay [2] was -4.73 throughout.

Consider `Cc1n[nH]c2ccc(-c3cncc(OC[C@@H](N)Cc4c[nH]c5ccccc45)c3)cc12`, for which the “AC50 for growth inhibition (log10 M)” value in assay [1] is -6.03; in assay [2], -6.08.

On to `COC1=CC=C(C(=C1)OC(C)C)C/2=N/[C@@H]([C@@H](N2C(=O)N3CCNC(=O)C3)C4=CC=C(Cl)C=C4)C5=CC=C(Cl)C=C5` [Nutlin-3], for which the “AC50 for growth inhibition (log10 M)” value is -5.93 in assay [1] and -4.78 in assay [2].

On to `CC(C)Cn1cnc2c(N)nc3ccccc3c21` [Imiquimod], for which the entries for the “AC50 for growth inhibition (log10 M)” value in assay [1] and in assay [2] were -5.93 and -4.73, respectively.

`C#C[C@]1(O)CC[C@H]2[C@@H]3CCc4cc(O)ccc4[C@H]3CC[C@@]21C` [Ethinylestradiol]: the entries for the “AC50 for growth inhibition (log10 M)” value in assay [1] and in assay [2] were -4.78 and -4.83, respectively.

For the molecule `C=C1/C(=C/C=C2\CCCC3(C)[C@@H]([C@H](C)/C=C/C=C/C(O)(CC)CC)CC[C@@H]23)C[C@@H](O)C[C@@H]1O` (some centres undefined) [Seocalcitol], the “AC50 for growth inhibition (log10 M)” value in assay [1] was -4.83; in assay [2], -4.78.

`Cc1nc2ccc(CN(C)c3ccc(C(=O)N[C@@H](CCC(=O)O)C(=O)O)s3)cc2c(=O)[nH]1` [Raltitrexed]: the results for the “AC50 for growth inhibition (log10 M)” value in assay [1] and in assay [2] were -7.48 and -7.28, respectively.

Turning to `CCOC(=O)[C@H](CCc1ccccc1)N[C@H]1CCc2ccccc2N(CC(=O)O)C1=O` [Benzapril], the “AC50 for growth inhibition (log10 M)” value was -5.03 in assay [1] and -4.68 in assay [2].

Regarding `CC1=C(/C=C/C(C)=C/C=C/C(C)=C/C=C/C=C(C)/C=C/C=C(C)/C=C/C2=C(C)CCCC2(C)C)C(C)(C)CCC1` [beta-Carotene], the entries for the “AC50 for growth inhibition (log10 M)” value in assay [1] and in assay [2] were -5.13 and -4.88, respectively.

With `CCOC(=O)N1c2ccc(C(F)(F)F)cc2[C@@H](N(Cc2cc(C(F)(F)F)cc(C(F)(F)F)c2)C(=O)OC)C[C@H]1CC` [Torcetrapib], the “AC50 for growth inhibition (log10 M)” value was -4.73 in assay [1] and -5.18 in assay [2].

For `C[C@H]([C@H]1C\C(=C(CO)/C(=O)O1)C)[C@H]2CC[C@H]3[C@@H]4C[C@H]5O[C@]56[C@@H](O)\C=C/C(=O)[C@]6(C)[C@H]4CC[C@]23C` [Withaferin A], the results for the “AC50 for growth inhibition (log10 M)” value in assay [1] and in assay [2] were -5.68 and -5.78, respectively.

As for `CC(=O)C\1=C(/C)C2=CN=C(NC3=CC=C(C=N3)N4CCNCC4)N=C2N(C5CCCC5)C1=O`, the entries for the “AC50 for growth inhibition (log10 M)” value in assay [1] and in assay [2] were -4.93 and -4.73, respectively.

`N#Cc1c(NC(=O)c2cccc3ccccc23)sc2c1CCCC2` [TCS JNK 5a]: the “AC50 for growth inhibition (log10 M)” value in assay [1] is -5.88; in assay [2], -5.98.

Take `c1ccc(-c2oc3ncnc(NC[C@@H]4CCCO4)c3c2-c2ccccc2)cc1` [AIM-100]: the “AC50 for growth inhibition (log10 M)” value in assay [1] was -5.08; in assay [2], -5.73.

Consider `O=C(NCc1ccccc1)[C@H](Cc1ccccc1)NC(=O)[C@H]1O[C@@H]1C(=O)NCCc1ccc(O)cc1` [CAA0225], for which the “AC50 for growth inhibition (log10 M)” value in assay [1] was -6.48; in assay [2], -6.08.

Take `N#C/C(=C(/N)Sc1ccc(N)cc1)c1ccccc1C(F)(F)F` [SL-327]: the “AC50 for growth inhibition (log10 M)” value in assay [1] was -5.28; in assay [2], -5.13.

Consider `CNC(=O)c1ccc(Nc2cc(Nc3ccccc3[S+](=O)([O-])C(C)C)c3cc[nH]c3n2)nc1`, for which the results for the “AC50 for growth inhibition (log10 M)” value in assay [1] and in assay [2] were -4.78 and -4.68, respectively.

Consider `COc1cccc2c1C(=O)c1c(O)c3c(c(O)c1C2=O)C[C@@](O)(C(=O)CO)C[C@@H]3O[C@H]1C[C@H](N)[C@H](O)[C@H](C)O1` [Doxorubicin], for which the “AC50 for growth inhibition (log10 M)” value in assay [1] was -7.33; in assay [2], -6.43.

Take `CC[C@H](NC(=O)[C@H](C)NC)C(=O)N1C[C@@H](O)C[C@H]1Cc1c(-c2[nH]c3cc(F)ccc3c2C[C@@H]2C[C@H](O)CN2C(=O)[C@H](CC)NC(=O)[C@H](C)NC)[nH]c2cc(F)ccc12` [Birinapant]: the “AC50 for growth inhibition (log10 M)” value is -6.23 in assay [1] and -5.53 in assay [2].

Turning to `COc1ncc(-c2ccc3nccc(-c4ccnnc4)c3c2)cc1N[S+](=O)([O-])c1ccc(F)cc1F`, the entries for the “AC50 for growth inhibition (log10 M)” value in assay [1] and in assay [2] were -7.38 and -5.93, respectively.

Turning to `CCCn1c(=O)c2[nH]c(C34CC5CC3C[C@@H](C5)C4)nc2n(CCC)c1=O` [Rolofylline], the figures for the “AC50 for growth inhibition (log10 M)” value in assay [1] and in assay [2] were -4.68 and -4.83, respectively.

For `CC(=O)Nc1ccc([C@H](C)C(=O)Nc2ncc(C(C)C)s2)cc1`, the results for the “AC50 for growth inhibition (log10 M)” value in assay [1] and in assay [2] were -7.13 and -5.88, respectively.

For `C#Cc1cccc(Nc2ncnc3cc(OCCOC)c(OCCOC)cc23)c1` [Erlotinib hydrochloride], the “AC50 for growth inhibition (log10 M)” value in assay [1] was -6.38; in assay [2] it was -5.63.

As for `Cc1cnc(Nc2ccc(CN3CCOCC3)cc2)nc1Nc1cccc([S+](=O)([O-])NC(C)(C)C)c1` [TG-46], the “AC50 for growth inhibition (log10 M)” value in assay [1] was -4.68; in assay [2] it was -4.83.

With `N#Cc1c(C2CCNCC2)cc(-c2c(O)cccc2OCC2CC2)nc1N` [IKK-2 Inhibitor VIII], the “AC50 for growth inhibition (log10 M)” value was -4.88 in assay [1] and -4.73 in assay [2].

`COc1cc(C(=O)NC2CCN(C)CC2)ccc1Nc1ncc2c(n1)N(C1CCCC1)CCC(=O)N2C(C)C`: the “AC50 for growth inhibition (log10 M)” value is -5.13 in assay [1] and -4.73 in assay [2].

Regarding `CC(C)C[C@H](NC(=O)CNC(=O)c1cc(Cl)ccc1Cl)B(O)O` [Ixazomib], the “AC50 for growth inhibition (log10 M)” value in assay [1] was -6.63; in assay [2] it was -7.03.

In the case of `CC1(C)CCC(=C(\C1)C2=CC=C(Cl)C=C2)/CN3CCN(CC3)C4=CC(=C(C=C4)C(=O)N[S+]([O-])(=O)C5=CC=C(NCC6CCOCC6)C(=C5)[N+]([O-])=O)OC7=CN=C8[NH]C=CC8=C7` [ABT-199], the results for the “AC50 for growth inhibition (log10 M)” value in assay [1] and in assay [2] were -4.73 and -4.88, respectively.

As to `CCC1=C2CN3C(=O)\C4=C(/C=C3/C2=NC5=CC=C(O)C=C15)[C@@](O)(CC)C(=O)OC4` [SN-38], the “AC50 for growth inhibition (log10 M)” value in assay [1] was -8.48; in assay [2], -8.08.

Turning to `CC(C)C[C@H](NC(=O)[C@H](CCc1ccccc1)NC(=O)CN1CCOCC1)C(=O)N[C@@H](Cc1ccccc1)C(=O)N[C@@H](CC(C)C)C(=O)[C@@]1(C)CO1` [Carfilzomib], the “AC50 for growth inhibition (log10 M)” value in assay [1] is -7.93; in assay [2], -7.68.

For `COc1cc([C@@H]2c3cc4c(cc3[C@@H](O[C@@H]3O[C@@H]5CO[C@@H](c6cccs6)O[C@H]5[C@H](O)[C@H]3O)[C@H]3COC(=O)[C@H]23)OCO4)cc(OC)c1O` [Teniposide], the figures for the “AC50 for growth inhibition (log10 M)” value in assay [1] and in assay [2] were -7.13 and -6.03, respectively.

For `CCOc1ccc(Cc2cc([C@@H]3O[C@H](CO)[C@@H](O)[C@H](O)[C@H]3O)ccc2Cl)cc1` [Dapagliflozin], the entries for the “AC50 for growth inhibition (log10 M)” value in assay [1] and in assay [2] were -5.18 and -4.98, respectively.

For the molecule `CC[C@@H]1/C=C(\C)C[C@H](C)C[C@H](OC)[C@H]2O[C@@](O)(C(=O)C(=O)N3CCCC[C@H]3C(=O)O[C@H](/C(C)=C/[C@@H]3CC[C@H](Cl)[C@H](OC)C3)[C@H](C)[C@@H](O)CC1=O)[C@H](C)C[C@@H]2OC` [Pimecrolimus], the “AC50 for growth inhibition (log10 M)” value in assay [1] is -4.98; in assay [2], -4.93.

As to `Cc1nc(NC(=O)N2CCC[C@H]2C(N)=O)sc1-c1csc(C(C)(C)C)n1` [A-66], the “AC50 for growth inhibition (log10 M)” value in assay [1] is -5.38; in assay [2] it was -6.53.

Turning to `CN1CC[C@H]([C@@H](O)C1)C2=C(O)C=C(O)C3=C2O\C(=C/C3=O)C4=CC=CC=C4Cl`, the “AC50 for growth inhibition (log10 M)” value in assay [1] was -7.08; in assay [2] it was -7.13.

Turning to `COc1ccc([S+](=O)([O-])Nc2cccnc2Nc2ccc(O)cc2)cc1` [E-7010], the “AC50 for growth inhibition (log10 M)” value in assay [1] was -5.83; in assay [2], -6.93.

With `O=C1\C=C(OC2=C(C=CC=C12)C3=CC=CC4=C3SC5=C4C=CC=C5)\N6CCOCC6` [NU-7441], the “AC50 for growth inhibition (log10 M)” value in assay [1] is -4.68; in assay [2], -4.78.

As to `CC(C)(C)Cn1c(N)nc2ccc(-c3[nH]c(C(C)(C)C)nc3-c3ccc(F)cc3)nc21`, the figures for the “AC50 for growth inhibition (log10 M)” value in assay [1] and in assay [2] were -4.53 and -4.73, respectively.

For the molecule `COc1cccc2c1C(=O)c1c(O)c3c(c(O)c1C2=O)C[C@@](O)(C(C)=O)C[C@@H]3O[C@H]1C[C@H](N)[C@H](O)[C@H](C)O1` [Daunorubicin], the “AC50 for growth inhibition (log10 M)” value in assay [1] was -7.28; in assay [2] it was -6.93.

Turning to `ClC/1=C(NCCN2CCOCC2)/C(=O)C3=C(C=CC=N3)C1=O` [DA-3003-1], the “AC50 for growth inhibition (log10 M)” value in assay [1] is -5.58; in assay [2], -5.18.

With `COc1cc2ncnc(Nc3ccc(F)c(Cl)c3)c2cc1OCCCN1CCOCC1` [Gefitinib], the “AC50 for growth inhibition (log10 M)” value in assay [1] is -5.57; in assay [2], -6.67.

For the molecule `CN[S+](=O)([O-])CCc1ccc2[nH]cc(C3CCN(C)CC3)c2c1` [Naratriptan hydrochloride], the “AC50 for growth inhibition (log10 M)” value was -7.08 in assay [1] and -6.83 in assay [2].
